ChEMBL document CHEMBL4340515, “Dione-thiophene conjugate inhibits proliferation and metastasis of nasopharyngeal carcinoma cells through calcium binding protein-P down-regulation” (Eur J Med Chem, 2019)
Active and inactive are the calls of the source. The calls are words filed in the database; no cut-off is given here.

How the values were obtained:
C6661 [1] = test: Down regulation of MMP-2 protein expression level in human C6661 cells at 4 to 10 umol/l incubated for 48 hrs by Western-blot analysis relative to control; type: functional, cell-based
CNE [2] = test: Antiproliferation activity against human CNE1 cells assessed as reduction in cell viability at 10 umol/l incubated for 48 hrs by MTT assay; type: functional
C6661 [3] = test: Antimetastatic activity in human C6661 cells assessed as cell invasion at 4 umol/l after 48 hrs by hematoxylin staining-based transwell invasion assay relative to control; type: functional
C6661 [4] = test: Antimetastatic activity in human C6661 cells assessed as cell invasion at 2 umol/l after 48 hrs by hematoxylin staining-based transwell invasion assay relative to control; type: functional
C6661 [5] = test: Antiproliferation activity against human C6661 cells assessed as reduction in cell viability incubated for 48 hrs by MTT assay; type: functional, cell-based
C6661 [6] = test: Down regulation of EGFR protein expression level in human C6661 cells at 1 umol/l incubated for 48 hrs by Western-blot analysis relative to control; type: functional, cell-based
[7] = Cytotoxicity against human NP69 cell assessed as reduction in cell viability at 2 to 10 umol/l incubated for 48 hrs by MTT assay
C6661 [8] = test: Down regulation of CD44 protein expression level in human C6661 cells at 4 to 10 umol/l incubated for 48 hrs by Western-blot analysis relative to control; type: functional, cell-based
C6661 [9] = test: Antiproliferation activity against human C6661 cells assessed as reduction in cell viability at 1 umol/l incubated for 48 hrs by MTT assay; type: functional, cell-based
CNE [10] = test: Antiproliferation activity against human CNE1 cells assessed as reduction in cell viability at 2 to 10 umol/l incubated for 48 hrs by MTT assay relative to control; type: functional, cell-based
C6661 [11] = test: Down regulation of S100P mRNA expression in human C6661 cells at 2 to 10 umol/l incubated for 48 hrs by RT-qPCR analysis relative to control; type: functional, cell-based
CNE [12] = test: Antiproliferation activity against human CNE1 cells assessed as reduction in cell viability at 1 umol/l incubated for 48 hrs by MTT assay; type: functional, cell-based
C6661 [13] = test: Down regulation of EGFR protein expression level in human C6661 cells at 4 to 10 umol/l incubated for 48 hrs by Western-blot analysis relative to control; type: functional, cell-based
C6661 [14] = test: Down regulation of MMP-9 protein expression level in human C6661 cells at 4 to 10 umol/l incubated for 48 hrs by Western-blot analysis relative to control; type: functional, cell-based
C6661 [15] = test: Induction of apoptosis in human C6661 cells assessed as increase in apoptotic cells population at 6 umol/l incubated for 48 hrs by annexin V-FITC / propidium iodide staining based flow cytometry; type: functional
C6661 [16] = test: Down regulation of S100P protein expression level in human C6661 cells at 2 to 10 umol/l incubated for 48 hrs by Western-blot analysis relative to control; type: functional, cell-based
C6661 [17] = test: Antimetastatic activity in human C6661 cells assessed as cell invasion at 1 umol/l after 48 hrs by hematoxylin staining-based transwell invasion assay relative to control; type: functional
C6661 [18] = test: Down regulation of CD44 protein expression level in human C6661 cells at 1 umol/l incubated for 48 hrs by Western-blot analysis relative to control; type: functional, cell-based
C6661 [19] = test: Down regulation of MMP-9 protein expression level in human C6661 cells at 1 umol/l incubated for 48 hrs by Western-blot analysis relative to control; type: functional, cell-based
C6661 [20] = test: Antiproliferation activity against human C6661 cells assessed as reduction in cell viability at 10 umol/l incubated for 48 hrs by MTT assay relative to control; type: functional
C6661 [21] = test: Down regulation of RAGE protein expression level in human C6661 cells at 1 umol/l incubated for 48 hrs by Western-blot analysis relative to control; type: functional, cell-based
C6661 [22] = test: Induction of apoptosis in human C6661 cells assessed as increase in apoptotic cells population at 2 umol/l incubated for 48 hrs by annexin V-FITC / propidium iodide staining based flow cytometry; type: functional
C6661 [23] = test: Antimetastatic activity in human C6661 cells assessed as reduction in cell invasion after 48 hrs by hematoxylin staining-based transwell invasion assay; type: functional
C6661 [24] = test: Induction of apoptosis in human C6661 cells assessed as increase in apoptotic cells population at 10 umol/l incubated for 48 hrs by annexin V-FITC / propidium iodide staining based flow cytometry; type: functional
C6661 [25] = test: Induction of apoptosis in human C6661 cells assessed as increase in apoptotic cells population at 4 umol/l incubated for 48 hrs by annexin V-FITC / propidium iodide staining based flow cytometry; type: functional
C6661 [26] = test: Down regulation of MMP-2 protein expression level in human C6661 cells at 1 umol/l incubated for 48 hrs by Western-blot analysis relative to control; type: functional, cell-based
C6661 [27] = test: Down regulation of RAGE protein expression level in human C6661 cells at 4 to 10 umol/l incubated for 48 hrs by Western-blot analysis relative to control; type: functional, cell-based
CNE [28] = test: Antiproliferation activity against human CNE1 cells assessed as reduction in cell viability incubated for 48 hrs by MTT assay; type: functional, cell-based
C6661 [29] = test: Induction of apoptosis in human C6661 cells assessed as enhanced early apoptotic cells population at 1 to 10 umol/l incubated for 48 hrs by annexin V-FITC / propidium iodide staining based flow cytometry; type: functional
C6661 [30] = test: Antiproliferation activity against human C6661 cells assessed as reduction in cell viability at 2 to 10 umol/l incubated for 48 hrs by MTT assay relative to control; type: functional, cell-based
C6661 [31] = test: Antimetastatic activity in human C6661 cells assessed as cell invasion at 10 umol/l after 48 hrs by hematoxylin staining-based transwell invasion assay relative to control; type: functional
C6661 [32] = test: Antimetastatic activity in human C6661 cells assessed as cell invasion at 6 umol/l after 48 hrs by hematoxylin staining-based transwell invasion assay relative to control; type: functional

O=C1CCCCC(=O)C1=CSc1ccccc1C(F)(F)F
Activity (C6661 [1]): Active | Activity (CNE [2]): 24% | Activity (C6661 [3]): 63% | Activity (C6661 [4]): 89% | Activity (C6661 [5]): Active | Activity (C6661 [6]): inactive | Activity [7]: Non-Toxic | Activity (C6661 [8]): Active | Activity (C6661 [9]): inactive | Activity (CNE [10]): Active | Activity (C6661 [11]): Dose-dependent effect | Activity (CNE [12]): inactive | Activity (C6661 [13]): Active | Activity (C6661 [14]): Active | Activity (C6661 [15]): 46.24% | Activity (C6661 [16]): Dose-dependent effect | Activity (C6661 [17]): 99% | Activity (C6661 [18]): inactive | Activity (C6661 [19]): inactive | Activity (C6661 [20]): 26% | Activity (C6661 [21]): inactive | Activity (C6661 [22]): 10.54% | Activity (C6661 [23]): Dose-dependent effect | Activity (C6661 [24]): 61.78% | Activity (C6661 [25]): 23.45% | Activity (C6661 [26]): inactive | Activity (C6661 [27]): Active | Activity (CNE [28]): Active | Activity (C6661 [29]): 2.76 - 69.43% | Activity (C6661 [30]): Active | Activity (C6661 [31]): 11% | Activity (C6661 [32]): 22%

O=C1CCCCC(=O)C1=CSc1ccccc1F
Activity (C6661 [5]): Active | Activity (CNE [28]): Active

Cc1ncccc1SC=C1C(=O)CCCCC1=O
Activity (C6661 [5]): Active | Activity (CNE [28]): Active

N#Cc1ccccc1SC=C1C(=O)CCCCC1=O
Activity (C6661 [5]): Active | Activity (CNE [28]): Active

O=C1CCCCC(=O)C1=CSc1ccccc1[N+](=O)[O-]
Activity (C6661 [5]): Active | Activity (CNE [28]): Active

O=C1CCCCC(=O)C1=CSc1ccccc1Br
Activity (C6661 [5]): Active | Activity (CNE [28]): Active

O=C1CCCCC(=O)C1=CSc1ccccc1Cl
Activity (C6661 [5]): Active | Activity (CNE [28]): Active
